Structures can show the parent of a compound that is named as a salt.
What follows are compounds tested on RS4; 11 with G101V mutation (assay: In vitro anti-proliferation assay (ATPlite luminescence) in BCL-2-dependent ALL cell line RS4;11 with G101V mutation). Settings: cellular anti-proliferative IC50, about 72 hours, medium with 10% FBS, ATPlite; hydrochloride; read-out: RS411-G101V IC50.
Type: cell-based
Protocol: Cell antiproliferation was assayed by PerkinElmer ATPlite™ Luminescence Assay System. Briefly, the various test cancer cell lines were plated at a density of about 1×10^4 cells per well in Costar 96-well plates, and were incubated with different concentrations of compounds for about 72 hours in medium supplemented with 10% FBS. One lyophilized substrate solution vial was then reconstituted by adding 5 mL of substrate buffer solution, and was agitated gently until the solution was homogeneous. About 50 μL of mammalian cell lysis solution was added to 100 μL of cell suspension per well of a microplate, and the plate was shaken for about five minutes in an orbital shaker at ˜700 rpm. This procedure was used to lyse the cells and to stabilize the ATP. Next, 50 μL substrate solution was added to the wells and microplate was shaken for five minutes in an orbital shaker at ˜700 rpm. Finally, the luminescence was measured by a PerkinElmer TopCount® Microplate Scintillation Counter. Such assays, carried out with a range of doses of test compounds, allowed the determination of the cellular anti-antiproliferative IC50 of the compounds of the present invention.
The following table lists the IC50 values of another study for certain compounds of the invention.

| SMILES | IC50 [nM] |
| --- | --- |
| Cc1ccccc1[C@@H]1CN(C2CCC(C)(O)CC2)CCN1C1CC2(CCN(c3ccc(C(=O)NS(=O)(=O)c4ccc(NCC5CCC(C)(O)CC5)c([N+](=O)[O-])c4)c(N4c5cc6cc[nH]c6nc5O[C@H]5COCC[C@@H]54)c3)CC2)C1 (stereo partly drawn) [Example 113, 2-[(3R,8S)-2,5-dioxa-9,15,17-triazatetracyclo[8.7.0.0^{3,8}.0^{12,16}]heptadeca-1(10),11,13,16-tetraen-9-yl]-4-{2-[(2R)-2-(2-methylphenyl)-4-[(1s,4s)-4-hydroxy-4-methylcyclohexyl]piperazin-1-yl]-7-azaspiro[3.5]nonan-7-yl}-N-[3-nitro-4-({[(1r,4r)-4-hydroxy-4-methylcyclohexyl]methyl}amino)benzenesulfonyl]benzamide hydrochloride] | 8.2 |

Same assay, conditions: cellular anti-proliferative IC50, about 72 hours, medium with 10% FBS, ATPlite; read-out: RS411-G101V IC50

| SMILES | IC50 [nM] |
| --- | --- |
| Cc1ccccc1[C@@H]1CN(C2CCOCC2)CCN1C1CC2(CCN(c3ccc(C(=O)NS(=O)(=O)c4ccc(NCC5CCC(C)(O)CC5)c([N+](=O)[O-])c4)c(N4c5cc6cc[nH]c6nc5O[C@H]5COCC[C@@H]54)c3)CC2)C1 (stereo partly drawn) [Example 114, 2-[(3R,8S)-2,5-dioxa-9,15,17-triazatetracyclo[8.7.0.0^{3,8}.0^{12,16}]heptadeca-1(10),11,13,16-tetraen-9-yl]-4-{2-[(2R)-2-(2-methylphenyl)-4-(oxan-4-yl)piperazin-1-yl]-7-azaspiro[3.5]nonan-7-yl}-N-[3-nitro-4-({[(1r,4r)-4-hydroxy-4-methylcyclohexyl]methyl}amino)benzenesulfonyl]benzamide] | 11.8 |
| CC(C)Oc1ccccc1[C@H]1CN(Cc2ccc(F)c(F)c2)CCN1C1CC2(CCN(c3ccc(C(=O)NS(=O)(=O)c4ccc(NCC5CCC(C)(O)CC5)c([N+](=O)[O-])c4)c(N4c5cc6cc[nH]c6nc5O[C@H]5COCC[C@@H]54)c3)CC2)C1 (stereo partly drawn) [Example 115, 4-{2-[(2S)-4-[(3,4-difluorophenyl)methyl]-2-(2-isopropoxyphenyl)piperazin-1-yl]-7-azaspiro[3.5]nonan-7-yl}-2-[(3R,8S)-2,5-dioxa-9,15,17-triazatetracyclo[8.7.0.0^{3,8}.0^{12,16}]heptadeca-1(10),11,13,16-tetraen-9-yl]-N-[3-nitro-4-({[(1r,4r)-4-hydroxy-4-methylcyclohexyl]methyl}amino)benzenesulfonyl]benzamide] | 27.3 |
| CC(C)Oc1ccccc1[C@H]1CN(Cc2ccc(N3CCOC[C@H]3C)cc2)CCN1C1CC2(CCN(c3ccc(C(=O)NS(=O)(=O)c4ccc(NCC5CCC(C)(O)CC5)c([N+](=O)[O-])c4)c(N4c5cc6cc[nH]c6nc5O[C@H]5COCC[C@@H]54)c3)CC2)C1 (stereo partly drawn) [Example 116, 2-[(3R,8S)-2,5-dioxa-9,15,17-triazatetracyclo[8.7.0.0^{3,8}.0^{12,16}]heptadeca-1(10),11,13,16-tetraen-9-yl]-4-{2-[(2S)-2-(2-isopropoxyphenyl)-4-({4-[(3R)-3-methylmorpholin-4-yl]phenyl}methyl)piperazin-1-yl]-7-azaspiro[3.5]nonan-7-yl}-N-[3-nitro-4-({[(1r,4r)-4-hydroxy-4-methylcyclohexyl]methyl}amino)benzenesulfonyl]benzamide] | 28.7 |
| CC(C)Oc1ccccc1[C@H]1CN(Cc2cnc3c(c2)OCCO3)CCN1C1CC2(CCN(c3ccc(C(=O)NS(=O)(=O)c4ccc(NCC5CCC(C)(O)CC5)c([N+](=O)[O-])c4)c(N4c5cc6cc[nH]c6nc5O[C@H]5COCC[C@@H]54)c3)CC2)C1 (stereo partly drawn) [Example 117, 2-[(3R,8S)-2,5-dioxa-9,15,17-triazatetracyclo[8.7.0.0^{3,8}.0^{12,16}]heptadeca-1(10),11,13,16-tetraen-9-yl]-4-{2-[(2S)-4-{2H,3H-[1,4]dioxino[2,3-b]pyridin-7-ylmethyl}-2-(2-isopropoxyphenyl)piperazin-1-yl]-7-azaspiro[3.5]nonan-7-yl}-N-[3-nitro-4-({[(1r,4r)-4-hydroxy-4-methylcyclohexyl]methyl}amino)benzenesulfonyl]benzamide] | 13.2 |
| COc1cc(CN2CCN(C3CC4(CCN(c5ccc(C(=O)NS(=O)(=O)c6ccc(NCC7CCC(C)(O)CC7)c([N+](=O)[O-])c6)c(N6c7cc8cc[nH]c8nc7O[C@H]7COCC[C@@H]76)c5)CC4)C3)[C@H](c3ccccc3C)C2)cnc1OC (stereo partly drawn) [Example 118, 4-{2-[(2R)-4-[(5,6-dimethoxypyridin-3-yl)methyl]-2-(2-methylphenyl)piperazin-1-yl]-7-azaspiro[3.5]nonan-7-yl}-2-[(3R,8S)-2,5-dioxa-9,15,17-triazatetracyclo[8.7.0.0^{3,8}.0^{12,16}]heptadeca-1(10),11,13,16-tetraen-9-yl]-N-[3-nitro-4-({[(1r,4r)-4-hydroxy-4-methylcyclohexyl]methyl}amino)benzenesulfonyl]benzamide] | 4.4 |
| COc1cc(CN2CCN(C3CC4(CCN(c5ccc(C(=O)NS(=O)(=O)c6ccc(NCC7CCC(C)(O)CC7)c([N+](=O)[O-])c6)c(N6c7cc8cc[nH]c8nc7O[C@H]7COCC[C@@H]76)c5)CC4)C3)[C@@H](c3ccccc3OC(C)C)C2)cnc1N1CCOCC1 (stereo partly drawn) [Example 119, N-((4-((((1r,4r)-4-hydroxy-4-methylcyclohexyl)methyl)amino)-3-nitrophenyl)sulfonyl)-4-(2-((S)-2-(2-isopropoxyphenyl)-4-((5-(methoxy-d3)-6-morpholinopyridin-3-yl)methyl)piperazin-1-yl)-7-azaspiro[3.5]nonan-7-yl)-2-((5aS,9aR)-6,7,9,9a-tetrahydro-1H-pyrano[3,4-b]pyrrolo[3′,2′:5,6]pyrido[3,2-e][1,4]oxazin-5(5aH)-yl)benzamide] | 14.6 |
| COc1cc(CN2CCN([C@@H]3CC4(CCN(c5ccc(C(=O)NS(=O)(=O)c6ccc(NCC7CCC(C)(O)CC7)c([N+](=O)[O-])c6)c(N6c7cc8cc[nH]c8nc7O[C@H]7COCC[C@@H]76)c5)CC4)[C@@H]3C)[C@@H](c3ccccc3OC(C)C)C2)cnc1N1CCOCC1 (stereo partly drawn) [Example 120, 2-[(3R,8S)-2,5-dioxa-9,15,17-triazatetracyclo[8.7.0.0^{3,8}.0^{12,16}]heptadeca-1(10),11,13,16-tetraen-9-yl]-4-[(1S,2R)-2-[(2S)-2-(2-isopropoxyphenyl)-4-{[5-methoxy-6-(morpholin-4-yl)pyridin-3-yl]methyl}piperazin-1-yl]-1-methyl-7-azaspiro[3.5]nonan-7-yl]-N-[3-nitro-4-({[(1r,4r)-4-hydroxy-4-methylcyclohexyl]methyl}amino)benzenesulfonyl]benzamide] | 147 |
| COc1cc(CN2CCN([C@@H]3CC4(CCN(c5ccc(C(=O)NS(=O)(=O)c6ccc(NCC7CCC(C)(O)CC7)c([N+](=O)[O-])c6)c(N6c7cc8cc[nH]c8nc7O[C@H]7COCC[C@@H]76)c5)CC4)[C@H]3C)[C@@H](c3ccccc3OC(C)C)C2)cnc1N1CCOCC1 (stereo partly drawn) [Example 121, 2-[(3R,8S)-2,5-dioxa-9,15,17-triazatetracyclo[8.7.0.0^{3,8}.0^{12,16}]heptadeca-1(10),11,13,16-tetraen-9-yl]-4-[(1R,2R)-2-[(2S)-2-(2-isopropoxyphenyl)-4-{[5-methoxy-6-(morpholin-4-yl)pyridin-3-yl]methyl}piperazin-1-yl]-1-methyl-7-azaspiro[3.5]nonan-7-yl]-N-[3-nitro-4-({[(1r,4r)-4-hydroxy-4-methylcyclohexyl]methyl}amino)benzenesulfonyl]benzamide] | 47.9 |
| COc1cc(CN2CCN(C3CC4(CCN(c5ccc(C(=O)NS(=O)(=O)c6ccc(NCC7CCC(C)(O)CC7)c([N+](=O)[O-])c6)c(N6c7cc8c(F)c[nH]c8nc7O[C@H]7COCC[C@@H]76)c5)CC4)C3)[C@@H](c3ccccc3OC(C)C)C2)cnc1N1CCOCC1 (stereo partly drawn) [Example 122, 2-[(3R,8S)-13-fluoro-2,5-dioxa-9,15,17-triazatetracyclo[8.7.0.0^{3,8}.0^{12,16}]heptadeca-1(10),11,13,16-tetraen-9-yl]-4-{2-[(2S)-2-(2-isopropoxyphenyl)-4-{[5-methoxy-6-(morpholin-4-yl)pyridin-3-yl]methyl}piperazin-1-yl]-7-azaspiro[3.5]nonan-7-yl}-N-[3-nitro-4-({[(1r,4r)-4-hydroxy-4-methylcyclohexyl]methyl}amino)benzenesulfonyl]benzamide] | 10 |
| COc1cc(CN2CCN(C3CC4(CCN(c5ccc(C(=O)NS(=O)(=O)c6ccc(NCC7CCC(C)(O)CC7)c([N+](=O)[O-])c6)c(N6c7cc8cc[nH]c8nc7O[C@H]7COCC[C@@H]76)c5)CC4)C3)[C@H](c3ccccc3C)C2)cnc1N1CCOCC1 (stereo partly drawn) [Example 123, N-((4-((((1r,4r)-4-hydroxy-4-methylcyclohexyl)methyl)amino)-3-nitrophenyl)sulfonyl)-4-(2-((R)-4-((5-methoxy-6-morpholinopyridin-3-yl)methyl)-2-(o-tolyl)piperazin-1-yl)-7-azaspiro[3.5]nonan-7-yl)-2-((5aS,9aR)-6,7,9,9a-tetrahydro-1H-pyrano[3,4-b]pyrrolo[3′,2′:5,6]pyrido[3,2-e][1,4]oxazin-5(5aH)-yl)benzamide] | 2.9 |
| COc1cc(CN2CCN(C3CC4(CCN(c5ccc(C(=O)NS(=O)(=O)c6ccc(NCC7CCC(C)(O)CC7)c([N+](=O)[O-])c6)c(N6c7cc8cc[nH]c8nc7O[C@H]7COCC[C@@H]76)c5)CC4)C3)[C@H](c3ccccc3C)C2)cnc1N1CCOCC1 (stereo partly drawn) [Example 124, N-((4-((((1r,4r)-4-hydroxy-4-methylcyclohexyl)methyl)amino)-3-nitrophenyl)sulfonyl)-4-(2-((R)-4-((5-(methoxy-d3)-6-morpholinopyridin-3-yl)methyl)-2-(o-tolyl)piperazin-1-yl)-7-azaspiro[3.5]nonan-7-yl)-2-((5aS,9aR)-6,7,9,9a-tetrahydro-1H-pyrano[3,4-b]pyrrolo[3′,2′:5,6]pyrido[3,2-e][1,4]oxazin-5(5aH)-yl)benzamide] | 2 |

— US20250114374A1, “BCL-2 INHIBITORS” (Newave Pharmaceutical Inc., priority 2021, published 2025)
